In US8278345B2, “Inhibitors of glutaminyl cyclase” (Probiodrug AG, priority 2006, dated 2012):
pIC50: −log10 of the molar value.

biological target: hQC (Homo sapiens, UniProt Q16769); experiment: Inhibitor assay for glutaminyl cyclase activity (fluorometric, H-Gln-βNA / H-Gln-AMC); format: biochemical; details: compound from preparative synthesis, purified; read-out: IC50 hQC
Outline: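 Ki values came from fitting progress curves to a competitive inhibition model; rapid screens used 4 mM inhibitor with substrate at KM. QC activity was read at 30 °C via auxiliary pyroglutamyl aminopeptidase releasing βNA (0.2 mM H-Gln-βNA, 0.2 M Tris pH 8.0, 20 mM EDTA) or AMC (0.05 M Tris pH 8.0, 5 mM EDTA).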

Chain of hQC (Q16769 29-361): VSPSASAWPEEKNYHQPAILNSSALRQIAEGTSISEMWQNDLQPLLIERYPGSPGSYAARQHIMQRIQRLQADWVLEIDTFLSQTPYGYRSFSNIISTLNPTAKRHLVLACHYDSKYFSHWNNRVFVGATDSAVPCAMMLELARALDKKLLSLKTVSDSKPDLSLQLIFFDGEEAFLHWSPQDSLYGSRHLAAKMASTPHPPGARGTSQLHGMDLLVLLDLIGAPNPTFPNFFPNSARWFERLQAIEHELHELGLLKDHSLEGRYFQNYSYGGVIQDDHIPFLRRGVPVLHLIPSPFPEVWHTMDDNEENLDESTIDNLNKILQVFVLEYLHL

Row | pIC50 | Compound
1 | 7.65 | O=C1C(O)=C(c2cccc(O)c2)C(c2ccc3nsnc3c2)N1c1ccc2[nH]cnc2c1 (stereo not drawn) [Compound 269, 1-(1H-Benzoimidazol-5-yl)-5-benzo[c][1,2,5]thiadiazol-5-yl-3-hydroxy-4-(3-hydroxy-phenyl)-1,5-dihydro-pyrrol-2-one]

same assay, conditions: read-out: IC50

Row | pIC50 | Compound
2 | 8.40 | O=C1C(O)=C(c2cccc(O)c2)C(c2ccc3nsnc3c2)N1c1ccc2[nH]cnc2c1 (stereo not drawn) [Compound 269, 1-(1H-Benzoimidazol-5-yl)-5-benzo[c][1,2,5]thiadiazol-5-yl-3-hydroxy-4-(3-hydroxy-phenyl)-1,5-dihydro-pyrrol-2-one]
3 | 5.83 | CC1=C(O)C(=O)N(c2ccc3[nH]cnc3c2)C1c1ccnc2ccccc12 (stereo not drawn) [Compound 270, 1-(1H-Benzoimidazol-5-yl)-3-hydroxy-4-methyl-5-quinolin-4-yl-1,5-dihydro-pyrrol-2-one]
4 | 5.86 | Cc1cc(C2C(c3ccc(O)cc3)=C(O)C(=O)N2c2ccc3[nH]cnc3c2)oc1C (stereo not drawn) [Compound 271, 1-(1H-Benzoimidazol-5-yl)-5-(4,5-dimethyl-furan-2-yl)-3-hydroxy-4-(4-hydroxy-phenyl)-1,5-dihydro-pyrrol-2-one]
5 | 5.43 | O=C(C1=C(O)C(=O)N(c2ccc3[nH]cnc3c2)C1c1ccc(CO)o1)c1ccncc1 (stereo not drawn) [Compound 272, 1-(1H-Benzoimidazol-5-yl)-3-hydroxy-5-(5-hydroxymethyl-furan-2-yl)-4-(pyridine-4-carbonyl)-1,5-dihydro-pyrrol-2-one]
6 | 6.24 | Cc1ccc(C2C(C(=O)C3CCCCC3)=C(O)C(=O)N2c2ccc3[nH]cnc3c2)o1 (stereo not drawn) [Compound 273, 1-(1H-Benzoimidazol-5-yl)-4-cyclohexanecarbonyl-3-hydroxy-5-(5-methyl-furan-2-yl)-1,5-dihydro-pyrrol-2-one]
7 | 5.61 | CCCCCC(=O)C1=C(O)C(=O)N(c2ccc3[nH]cnc3c2)C1C1CCOC1 (stereo not drawn) [Compound 274, 1-(1H-Benzoimidazol-5-yl)-4-hexanoyl-3-hydroxy-5-(tetrahydro-furan-3-yl)-1,5-dihydro-pyrrol-2-one]
8 | 5.22 | CC(C)C1=C(O)C(=O)N(c2ccc3[nH]cnc3c2)C1c1csc2ccccc12 (stereo not drawn) [Compound 275, 5-Benzo[b]thiophen-3-yl-1-(1H-benzoimidazol-5-yl)-3-hydroxy-4-isopropyl-1,5-dihydro-pyrrol-2-one]
9 | 5.36 | CCC1=C(O)C(=O)N(c2ccc3[nH]cnc3c2)C1c1cc(Cl)ccc1O (stereo not drawn) [Compound 276, 1-(1H-Benzoimidazol-5-yl)-5-(5-chloro-2-hydroxy-phenyl)-4-ethyl-3-hydroxy-1,5-dihydro-pyrrol-2-one]
10 | 5.27 | CC(C)CC(=O)C1=C(O)C(=O)N(c2ccc3[nH]cnc3c2)C1c1cn(C)c2ccccc12 (stereo not drawn) [Compound 278, 1-(1H-Benzoimidazol-5-yl)-3-hydroxy-4-(3-methyl-butyryl)-5-(1-methyl-1H-indol-3-yl)-1,5-dihydro-pyrrol-2-one]
11 | 5.24 | O=C1C(O)=C(c2ccc(O)cc2)C(C2CCOC2)N1c1ccc2[nH]cnc2c1 (stereo not drawn) [Compound 279, 1-(1H-Benzoimidazol-5-yl)-3-hydroxy-4-(4-hydroxy-phenyl)-5-(tetrahydro-furan-3-yl)-1,5-dihydro-pyrrol-2-one]
12 | 6.51 | Cc1ccc2occ(C3C(c4ccc(O)cc4)=C(O)C(=O)N3c3ccc4[nH]cnc4c3)c(=O)c2c1 (stereo not drawn) [Compound 280, 1-(1H-Benzoimidazol-5-yl)-3-hydroxy-4-(4-hydroxy-phenyl)-5-(6-methyl-4-oxo-4H-chromen-3-yl)-1,5-dihydro-pyrrol-2-one]
13 | 5.23 | O=C1C(O)=C(c2c[nH]c3ccccc23)C(c2cccc3cccnc23)N1c1ccc2[nH]cnc2c1 (stereo not drawn) [Compound 281, 1-(1H-Benzoimidazol-5-yl)-3-hydroxy-4-(1H-indol-3-yl)-5-quinolin-8-yl-1,5-dihydro-pyrrol-2-one]
14 | 6.17 | CCC1=C(O)C(=O)N(c2ccc3[nH]cnc3c2)C1c1cc(C)ccc1O (stereo not drawn) [Compound 282, 1-(1H-Benzoimidazol-5-yl)-4-ethyl-3-hydroxy-5-(2-hydroxy-5-methyl-phenyl)-1,5-dihydro-pyrrol-2-one]
15 | 6.40 | CC(=O)C1=C(O)C(=O)N(c2ccc3[nH]cnc3c2)C1c1cccc(C)c1 (stereo not drawn) [Compound 283, 4-Acetyl-1-(1H-benzoimidazol-5-yl)-3-hydroxy-5-m-tolyl-1,5-dihydro-pyrrol-2-one]
